Results on one compound are retold here after patent publication US6534049B2, “Synthetic soil-extract materials and medicaments for human immunodeficiency viruses based thereon” (priority 1997, dated 2003).

Data set [1] deals with T1, gp120/CD4 interaction (Human immunodeficiency virus type 1 group M subtype B, UniProt P03375).
Data set [2] has as its target T1, gp120/CD4 interaction. In words: cell-based.
For data set [3], the system named is HeLa CD4 LTR β-gal cells. Put plainly: HIV attachment inhibition assay (β-galactosidase chemiluminescence).
Data set [4] deals with HeLa CD4 LTR β-gal cells. Put plainly: Compound toxicity in HeLa CD4 LTR β-gal cells (XTT).

The structures appear in SMILES notation. Converted amounts (≈) assume the structure as drawn.

The term IC50 denotes the concentration at which inhibition is half-maximal.

With `COc1cc(-c2ccc(/N=N/c3ccc4c(S(=O)(=O)O)cc(S(=O)(=O)O)c(N)c4c3O)c(OC)c2)ccc1/N=N/c1ccc2c(S(=O)(=O)O)cc(S(=O)(=O)O)c(N)c2c1O` [Chicago Sky Blue], the “TI (=IC50/TC50)” value on gp120/CD4 interaction [1] is reported as over 5; with HeLa CD4 LTR β-gal cells [3] (general virus attachment), over 18. In addition, the IC50 was 2280 nM on gp120/CD4 interaction [2] and 0.53 µg/mL (≈ 0.586 µM) with HeLa CD4 LTR β-gal cells [3] (Human immunodeficiency virus 1, HeLa). Besides, the TC50 in the data set with HeLa CD4 LTR β-gal cells [4] (Table 10, XTT sister plate) was over 10 µg/mL; with HeLa CD4 LTR β-gal cells [4] (Table 11), over 10 µg/mL.
